Columns and labels:
Type in all cases: cell-based
Conditions in all cases: 24 hours of compound treatment, 50 nM and 500 nM tested (concentration behind the class not stated)
IKZF2 = target: T1, IKZF2 (Homo sapiens, UniProt Q96SW2+Q9UKS7); assay: Western-blot assay of substrate protein degradation in hPBMCs, IKZF2
T1 construct: endogenous in cells; host or cells: hPBMCs (Milecell Biotechnologies)

WEE1 = target: T2, WEE1 (Homo sapiens, UniProt P30291+Q96SW2); assay: Western-blot assay of substrate protein degradation in hPBMCs, WEE1
T2 construct: endogenous in cells; host or cells: hPBMCs (Milecell Biotechnologies)
T2 sequence (P30291 whole entry): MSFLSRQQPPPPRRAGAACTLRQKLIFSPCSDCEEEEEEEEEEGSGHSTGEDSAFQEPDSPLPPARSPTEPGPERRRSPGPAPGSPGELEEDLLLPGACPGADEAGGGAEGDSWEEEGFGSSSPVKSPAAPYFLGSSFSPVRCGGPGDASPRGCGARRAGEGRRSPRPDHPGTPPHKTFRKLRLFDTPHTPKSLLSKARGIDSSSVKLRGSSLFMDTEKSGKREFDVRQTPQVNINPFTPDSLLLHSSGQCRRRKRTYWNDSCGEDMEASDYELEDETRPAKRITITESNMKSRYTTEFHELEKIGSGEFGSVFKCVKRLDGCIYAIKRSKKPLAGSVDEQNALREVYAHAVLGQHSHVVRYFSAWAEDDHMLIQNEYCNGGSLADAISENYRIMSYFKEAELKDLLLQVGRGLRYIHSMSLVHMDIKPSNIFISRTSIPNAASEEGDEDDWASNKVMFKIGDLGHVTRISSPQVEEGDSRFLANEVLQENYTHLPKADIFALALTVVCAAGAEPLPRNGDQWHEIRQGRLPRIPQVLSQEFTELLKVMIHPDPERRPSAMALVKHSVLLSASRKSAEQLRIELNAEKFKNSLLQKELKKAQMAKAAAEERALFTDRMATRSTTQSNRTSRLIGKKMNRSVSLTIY
T2 sequence (Q96SW2 whole entry): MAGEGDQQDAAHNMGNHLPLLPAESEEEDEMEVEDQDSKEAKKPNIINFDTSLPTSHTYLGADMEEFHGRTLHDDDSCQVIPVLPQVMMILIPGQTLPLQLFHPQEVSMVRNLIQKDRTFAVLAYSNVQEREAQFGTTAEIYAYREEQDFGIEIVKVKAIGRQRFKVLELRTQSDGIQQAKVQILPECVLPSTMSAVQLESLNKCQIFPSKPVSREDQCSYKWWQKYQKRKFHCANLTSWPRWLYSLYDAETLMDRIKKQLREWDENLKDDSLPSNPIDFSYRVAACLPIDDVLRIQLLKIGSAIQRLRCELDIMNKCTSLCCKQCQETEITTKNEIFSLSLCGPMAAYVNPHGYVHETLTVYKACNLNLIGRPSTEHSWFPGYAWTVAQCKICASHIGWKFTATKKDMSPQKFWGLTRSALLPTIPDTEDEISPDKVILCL
T2 sequence (Q16531 whole entry partner): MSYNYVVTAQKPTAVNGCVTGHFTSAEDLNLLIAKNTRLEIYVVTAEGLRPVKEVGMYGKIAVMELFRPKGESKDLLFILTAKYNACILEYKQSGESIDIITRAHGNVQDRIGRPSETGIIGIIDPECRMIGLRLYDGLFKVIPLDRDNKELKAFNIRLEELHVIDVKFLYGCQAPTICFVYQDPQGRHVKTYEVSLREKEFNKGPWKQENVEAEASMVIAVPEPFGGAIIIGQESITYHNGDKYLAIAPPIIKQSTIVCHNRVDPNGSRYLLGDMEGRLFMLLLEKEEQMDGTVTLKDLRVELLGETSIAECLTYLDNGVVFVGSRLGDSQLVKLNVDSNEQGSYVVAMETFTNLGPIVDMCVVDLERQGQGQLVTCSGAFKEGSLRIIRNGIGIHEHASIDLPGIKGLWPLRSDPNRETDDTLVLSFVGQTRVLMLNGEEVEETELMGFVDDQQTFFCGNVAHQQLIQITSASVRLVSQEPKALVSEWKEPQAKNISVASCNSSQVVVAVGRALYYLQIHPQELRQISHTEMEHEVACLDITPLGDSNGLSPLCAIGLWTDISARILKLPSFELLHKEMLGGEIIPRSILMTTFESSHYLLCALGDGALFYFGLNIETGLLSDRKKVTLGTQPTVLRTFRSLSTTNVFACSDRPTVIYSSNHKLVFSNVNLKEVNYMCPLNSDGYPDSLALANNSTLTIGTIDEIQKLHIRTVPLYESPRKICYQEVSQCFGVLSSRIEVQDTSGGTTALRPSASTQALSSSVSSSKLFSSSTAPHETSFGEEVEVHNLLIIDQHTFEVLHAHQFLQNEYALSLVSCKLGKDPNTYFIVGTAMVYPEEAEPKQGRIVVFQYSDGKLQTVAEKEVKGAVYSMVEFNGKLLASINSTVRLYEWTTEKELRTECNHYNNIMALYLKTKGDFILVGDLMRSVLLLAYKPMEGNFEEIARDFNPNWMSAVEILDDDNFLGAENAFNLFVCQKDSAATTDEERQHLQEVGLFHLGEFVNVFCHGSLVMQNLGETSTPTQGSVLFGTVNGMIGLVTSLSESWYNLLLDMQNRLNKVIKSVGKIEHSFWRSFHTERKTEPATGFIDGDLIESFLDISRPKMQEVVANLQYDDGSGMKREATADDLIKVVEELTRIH

IKZF3 = target: T3, IKZF3 (Homo sapiens, UniProt Q96SW2+Q9UKT9); assay: Western-blot assay of substrate protein degradation in hPBMCs, IKZF3
T3 construct: endogenous in cells; host or cells: hPBMCs (Milecell Biotechnologies)
T3 sequence (Q9UKT9 whole entry): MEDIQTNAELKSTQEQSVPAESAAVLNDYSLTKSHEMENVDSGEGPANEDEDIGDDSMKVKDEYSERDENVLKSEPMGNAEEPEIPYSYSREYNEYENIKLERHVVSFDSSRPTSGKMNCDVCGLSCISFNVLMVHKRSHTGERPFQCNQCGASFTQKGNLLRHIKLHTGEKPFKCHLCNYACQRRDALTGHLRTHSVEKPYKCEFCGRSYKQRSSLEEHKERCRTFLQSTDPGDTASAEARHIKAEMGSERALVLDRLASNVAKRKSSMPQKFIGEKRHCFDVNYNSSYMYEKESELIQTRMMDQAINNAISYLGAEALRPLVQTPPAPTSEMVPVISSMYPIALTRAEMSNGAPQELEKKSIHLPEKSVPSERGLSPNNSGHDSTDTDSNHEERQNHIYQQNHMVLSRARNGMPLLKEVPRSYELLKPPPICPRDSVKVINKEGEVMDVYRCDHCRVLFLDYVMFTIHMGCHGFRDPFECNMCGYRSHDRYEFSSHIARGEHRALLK
T3 sequence (Q96SW2 whole entry): as the sequence (Q96SW2 whole entry) above
T3 sequence (Q16531 whole entry partner): as the sequence (Q16531 whole entry partner) above

GSPT1 = target: T4, GSPT1 (Homo sapiens, UniProt P15170+Q96SW2); assay: Western-blot assay of substrate protein degradation in hPBMCs, GSPT1
T4 construct: endogenous in cells; host or cells: hPBMCs (Milecell Biotechnologies)
T4 sequence (P15170 whole entry): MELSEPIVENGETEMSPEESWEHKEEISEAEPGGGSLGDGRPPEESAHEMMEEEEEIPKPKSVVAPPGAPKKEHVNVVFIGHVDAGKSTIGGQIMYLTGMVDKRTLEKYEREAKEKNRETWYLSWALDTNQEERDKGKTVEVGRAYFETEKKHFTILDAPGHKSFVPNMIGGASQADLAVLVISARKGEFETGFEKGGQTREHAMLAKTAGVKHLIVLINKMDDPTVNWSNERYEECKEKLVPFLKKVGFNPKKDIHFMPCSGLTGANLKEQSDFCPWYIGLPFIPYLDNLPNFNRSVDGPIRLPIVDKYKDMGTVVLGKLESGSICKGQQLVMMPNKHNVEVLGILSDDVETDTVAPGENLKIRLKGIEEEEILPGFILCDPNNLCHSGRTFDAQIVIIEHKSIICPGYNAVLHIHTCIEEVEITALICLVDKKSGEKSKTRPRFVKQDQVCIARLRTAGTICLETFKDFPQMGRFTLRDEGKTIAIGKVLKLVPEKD
T4 sequence (Q96SW2 whole entry): as the sequence (Q96SW2 whole entry) above
T4 sequence (Q16531 whole entry partner): as the sequence (Q16531 whole entry partner) above

CK1α = target: T5, CK1α (Homo sapiens, UniProt P48729+Q96SW2); assay: Western-blot assay of substrate protein degradation in hPBMCs, CK1α
T5 construct: endogenous in cells; host or cells: hPBMCs (Milecell Biotechnologies)
T5 sequence (P48729 whole entry): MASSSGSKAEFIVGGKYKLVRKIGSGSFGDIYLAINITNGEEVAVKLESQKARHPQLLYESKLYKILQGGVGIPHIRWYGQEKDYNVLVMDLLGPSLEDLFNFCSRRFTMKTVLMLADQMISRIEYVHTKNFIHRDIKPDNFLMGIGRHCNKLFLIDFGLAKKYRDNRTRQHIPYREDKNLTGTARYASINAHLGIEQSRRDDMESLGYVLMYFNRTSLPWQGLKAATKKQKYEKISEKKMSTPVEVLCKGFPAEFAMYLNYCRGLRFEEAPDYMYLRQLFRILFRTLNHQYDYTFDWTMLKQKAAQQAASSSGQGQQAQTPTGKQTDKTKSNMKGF
T5 sequence (Q96SW2 whole entry): as the sequence (Q96SW2 whole entry) above
T5 sequence (Q16531 whole entry partner): as the sequence (Q16531 whole entry partner) above

IKZF1 = target: T6, IKZF1 (Homo sapiens, UniProt Q13422+Q96SW2); assay: Western-blot assay of substrate protein degradation in hPBMCs, IKZF1
T6 construct: endogenous in cells; host or cells: hPBMCs (Milecell Biotechnologies)
T6 sequence (Q13422 whole entry): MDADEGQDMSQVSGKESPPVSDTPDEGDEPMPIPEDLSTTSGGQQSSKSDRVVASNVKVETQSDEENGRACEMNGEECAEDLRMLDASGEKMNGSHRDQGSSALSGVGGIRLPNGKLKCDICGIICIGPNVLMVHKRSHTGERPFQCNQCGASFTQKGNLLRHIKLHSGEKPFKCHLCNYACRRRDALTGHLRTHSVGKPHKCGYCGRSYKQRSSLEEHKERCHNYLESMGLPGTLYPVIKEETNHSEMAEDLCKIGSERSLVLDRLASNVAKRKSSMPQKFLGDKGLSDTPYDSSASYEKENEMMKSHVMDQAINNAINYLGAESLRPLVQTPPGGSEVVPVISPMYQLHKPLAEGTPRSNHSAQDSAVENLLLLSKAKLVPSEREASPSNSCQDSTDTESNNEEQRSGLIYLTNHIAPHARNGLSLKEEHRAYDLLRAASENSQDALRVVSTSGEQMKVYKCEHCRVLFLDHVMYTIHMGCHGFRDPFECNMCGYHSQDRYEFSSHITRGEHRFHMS
T6 sequence (Q96SW2 whole entry): as the sequence (Q96SW2 whole entry) above
T6 sequence (Q16531 whole entry partner): as the sequence (Q16531 whole entry partner) above

Compound | IKZF2 substrate protein remaining % (IKZF2) | Weel substrate protein remaining % (WEE1) | IKZF3 substrate protein remaining % (IKZF3) | GSPT1 substrate protein remaining % (GSPT1) | CK1a substrate protein remaining % (CK1α) | IKZF 1 substrate protein remaining % (IKZF1)
O=C1CCC(N2C(=O)c3ccc(CN4CCN(c5cc(F)ccc5F)CC4)cc3C2=O)C(=O)N1 (stereo not drawn) [GT-06362, 5-((4-(2,5-difluorophenyl)piperazin-1-yl)methyl)-2-(2,6-dioxopiperidin-3-yl)isoindoline-1,3-dione] | B (80%< substrate protein remaining %≤ 100%) | B (80%< substrate protein remaining %≤ 100%) | B (80%< substrate protein remaining %≤ 100%) | A (0% ≤ substrate protein remaining % ≤ 80%) | B (80%< substrate protein remaining %≤ 100%) | B (80%< substrate protein remaining %≤ 100%)
Cc1cc(N2CCN(Cc3ccc4c(c3)C(=O)N(C3CCC(=O)NC3=O)C4=O)CC2)ccn1 (stereo not drawn) [GT-06554, 2-(2,6-dioxopiperidin-3-yl)-5-((4-(2-methylpyridin-4-yl)piperazin-1-yl)methyl)isoindoline-1,3-dione] | A (0% ≤ substrate protein remaining % ≤ 80%) | B (80%< substrate protein remaining %≤ 100%) | B (80%< substrate protein remaining %≤ 100%) | A (0% ≤ substrate protein remaining % ≤ 80%) | B (80%< substrate protein remaining %≤ 100%) | B (80%< substrate protein remaining %≤ 100%)
O=C1CCC(N2C(=O)c3ccc(CN4CCCC(C5CCNCC5)C4)cc3C2=O)C(=O)N1 (stereo not drawn) [GT-06881, 5-([3,4'-bipiperidin]-1-ylmethyl)-2-(2,6-dioxopiperidin-3-yl)isoindoline-1,3-dione] | B (80%< substrate protein remaining %≤ 100%) | B (80%< substrate protein remaining %≤ 100%) | B (80%< substrate protein remaining %≤ 100%) | A (0% ≤ substrate protein remaining % ≤ 80%) | A (0% ≤ substrate protein remaining % ≤ 80%) | B (80%< substrate protein remaining %≤ 100%)
O=C1CCC(N2C(=O)c3ccc(CN4CC(N5CCc6cc(F)ccc65)C4)cc3C2=O)C(=O)N1 (stereo not drawn) [GT-06271, 2-(2,6-dioxopiperidin-3-yl)-5-((3-(5-fluoroindolin-1-yl)azetidin-1-yl)methyl)isoindoline-1,3-dione] | A (0% ≤ substrate protein remaining % ≤ 80%) | A (0% ≤ substrate protein remaining % ≤ 80%) | B (80%< substrate protein remaining %≤ 100%) | A (0% ≤ substrate protein remaining % ≤ 80%) | B (80%< substrate protein remaining %≤ 100%) | A (0% ≤ substrate protein remaining % ≤ 80%)
Cc1cscc1C1CCN(Cc2ccc3c(c2)C(=O)N(C2CCC(=O)NC2=O)C3=O)CC1 (stereo not drawn) [GT-06282, 2-(2,6-dioxopiperidin-3-yl)-5-((4-(4-methylthiophen-3-yl)piperidin-1-yl)methyl)isoindoline-1,3-dione] | B (80%< substrate protein remaining %≤ 100%) | B (80%< substrate protein remaining %≤ 100%) | B (80%< substrate protein remaining %≤ 100%) | A (0% ≤ substrate protein remaining % ≤ 80%) | B (80%< substrate protein remaining %≤ 100%) | B (80%< substrate protein remaining %≤ 100%)

From patent publication EP4745137A1 (Gluetacs Therapeutics (Shanghai) Co., Ltd., priority 2023, dated 2025)
